Source: PubChem BioAssay (NCI)
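Cultured in 96-well plates, cells were exposed to test compound for 48 hours across five concentrations. GI50: concentration for 50% inhibition of growth. The concentration for full growth arrest is given as TGI.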

How the values were obtained:
Experiment in all cases: NCI tumour cell line growth inhibition, 48 h
UACC-62 melanoma = system: UACC-62 melanoma
NCI-H460 lung = system: NCI-H460 lung
KM12 colon = system: KM12 colon
SNB-19 CNS = system: SNB-19 CNS
DU-145 prostate = system: DU-145 prostate
UO-31 renal = system: UO-31 renal
SN12C renal = system: SN12C renal
UACC-257 melanoma = system: UACC-257 melanoma
SW-620 colon = system: SW-620 colon
CAKI-1 renal = system: CAKI-1 renal
OVCAR-4 ovarian = system: OVCAR-4 ovarian
NCI-H522 lung = system: NCI-H522 lung
NCI-H226 lung = system: NCI-H226 lung
HOP-92 NSCLC = system: HOP-92 NSCLC
RXF 393 renal = system: RXF 393 renal
MDA-MB-231 breast = system: MDA-MB-231 breast
SR leukemia = system: SR leukemia
NCI/ADR-RES ovarian = system: NCI/ADR-RES ovarian
NCI-H23 lung = system: NCI-H23 lung
SNB-75 CNS = system: SNB-75 CNS
ACHN renal = system: ACHN renal
OVCAR-5 ovarian = system: OVCAR-5 ovarian
A498 renal = system: A498 renal
MALME-3M melanoma = system: MALME-3M melanoma
TK-10 renal = system: TK-10 renal
SK-MEL-5 melanoma = system: SK-MEL-5 melanoma
SF-268 CNS = system: SF-268 CNS
HL-60(TB) leukemia = system: HL-60(TB) leukemia
HCC-2998 colon = system: HCC-2998 colon
PC-3 prostate = system: PC-3 prostate
SF-539 CNS = system: SF-539 CNS
MOLT-4 leukemia = system: MOLT-4 leukemia
HCT-116 colon = system: HCT-116 colon
MDA-MB-435 = system: MDA-MB-435
SK-MEL-28 melanoma = system: SK-MEL-28 melanoma
IGROV1 ovarian = system: IGROV1 ovarian
SK-OV-3 ovarian = system: SK-OV-3 ovarian
CCRF-CEM leukemia = system: CCRF-CEM leukemia
786-0 renal = system: 786-0 renal
SF-295 CNS = system: SF-295 CNS

## N=C(N)c1ccc(-c2ccc(-c3cccs3)s2)s1
UACC-62 melanoma
  GI50: 1820 nM
  TGI: 3280 nM
NCI-H460 lung
  TGI: 229 nM
KM12 colon
  GI50: 1470 nM
  TGI: 2920 nM
SNB-19 CNS
  GI50: 1560 nM
  TGI: 3070 nM
DU-145 prostate
  GI50: 1520 nM
  TGI: 2970 nM
UO-31 renal
  GI50: 318 nM
  TGI: 2100 nM
SN12C renal
  GI50: 1580 nM
  TGI: 3300 nM
UACC-257 melanoma
  GI50: 1660 nM
  TGI: 3110 nM
SW-620 colon
  GI50: 1630 nM
  TGI: 3210 nM
CAKI-1 renal
  GI50: 1570 nM
  TGI: 2950 nM
OVCAR-4 ovarian
  GI50: 1330 nM
  TGI: 4160 nM
NCI-H522 lung
  GI50: 1490 nM
  TGI: 3020 nM
NCI-H226 lung
  GI50: 6890 nM
  TGI: 52400 nM
HOP-92 NSCLC
  GI50: 1060 nM
  TGI: 2600 nM
RXF 393 renal
  GI50: 290 nM
  TGI: 924 nM
MDA-MB-231 breast
  GI50: 1500 nM
  TGI: 3130 nM
SR leukemia
  GI50: 302 nM
  TGI: 895 nM
NCI/ADR-RES ovarian
  GI50: 1790 nM
  TGI: 3620 nM
NCI-H23 lung
  GI50: 1620 nM
  TGI: 3420 nM
SNB-75 CNS
  GI50: 1770 nM
  TGI: 3410 nM
ACHN renal
  GI50: 1660 nM
  TGI: 3090 nM
OVCAR-5 ovarian
  GI50: 1210 nM
  TGI: 2520 nM
A498 renal
  GI50: 279 nM
  TGI: 846 nM
MALME-3M melanoma
  GI50: 1710 nM
  TGI: 3670 nM
TK-10 renal
  GI50: 1480 nM
  TGI: 2890 nM
SK-MEL-5 melanoma
  GI50: 1020 nM
  TGI: 2340 nM
SF-268 CNS
  GI50: 1790 nM
  TGI: 3480 nM
HL-60(TB) leukemia
  GI50: 1580 nM
  TGI: 3420 nM
HCC-2998 colon
  GI50: 1130 nM
  TGI: 2480 nM
PC-3 prostate
  GI50: 1530 nM
  TGI: 2980 nM
SF-539 CNS
  GI50: 1580 nM
  TGI: 2960 nM

## CCCCc1n(Cc2ccc3ccccc3c2)cc[n+]1Cc1ccc2ccccc2c1
UACC-62 melanoma
  GI50: 705 nM
  TGI: 2080 nM
DU-145 prostate
  GI50: 1410 nM
  TGI: 2830 nM
MOLT-4 leukemia
  GI50: 1390 nM
  TGI: 3400 nM
UO-31 renal
  GI50: 1450 nM
  TGI: 2960 nM
SN12C renal
  GI50: 1090 nM
  TGI: 2430 nM
UACC-257 melanoma
  GI50: 1040 nM
  TGI: 2320 nM
HCT-116 colon
  GI50: 663 nM
  TGI: 2080 nM
SW-620 colon
  GI50: 1200 nM
  TGI: 2770 nM
MDA-MB-435
  GI50: 1020 nM
  TGI: 2260 nM
SK-MEL-28 melanoma
  GI50: 1320 nM
  TGI: 2690 nM
IGROV1 ovarian
  GI50: 732 nM
  TGI: 2260 nM
RXF 393 renal
  GI50: 1190 nM
  TGI: 2490 nM
MDA-MB-231 breast
  GI50: 1310 nM
  TGI: 2770 nM
NCI/ADR-RES ovarian
  GI50: 15800 nM
  TGI: 39800 nM
NCI-H23 lung
  GI50: 793 nM
  TGI: 2310 nM
SNB-75 CNS
  GI50: 908 nM
  TGI: 2400 nM
ACHN renal
  GI50: 1970 nM
  TGI: 4190 nM
OVCAR-5 ovarian
  GI50: 1280 nM
  TGI: 2630 nM
MALME-3M melanoma
  GI50: 1180 nM
  TGI: 2640 nM
TK-10 renal
  GI50: 1370 nM
  TGI: 2760 nM
SK-MEL-5 melanoma
  GI50: 612 nM
  TGI: 1860 nM
SK-OV-3 ovarian
  GI50: 1380 nM
  TGI: 2750 nM
CCRF-CEM leukemia
  GI50: 1520 nM
  TGI: 4030 nM
PC-3 prostate
  GI50: 1110 nM
  TGI: 2530 nM
786-0 renal
  GI50: 1520 nM
  TGI: 2970 nM
SF-295 CNS
  GI50: 1300 nM
  TGI: 2650 nM
SF-539 CNS
  GI50: 1400 nM
  TGI: 2740 nM
